# From PubChem BioAssay AID1963428 (Molecular Pharmacology Branch, DTP, NCI, 2024)
# Tested on: 171881-019-R-J1-PDC complex spheroid growth, % test/control
# Assay: Anticancer human tumor 171881-019-R-J1-PDC patient-derived invasive breast carcinoma cell line growth inhibition [Asc]
# Details: for IC50: curve of first compound; for viability, T/C: stronger effect = lower value
# How it was run: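 Concentration series start at each agent's clinical Cmax, or at 10 microM when none is established, and drop in half-log steps; agents are applied alone or together to complex spheroids built with HUVEC and hMSC.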
# [1] = second compound 0.01 µM, first compound 0.00316 µM
# [2] = second compound 0.01 µM, first compound 0.01 µM
# [3] = second compound 0.01 µM, first compound 0.0316 µM
# [4] = second compound 0.01 µM, first compound 0.1 µM
# [5] = second compound 0.01 µM, first compound 0.316 µM
# [6] = second compound 0.01 µM, first compound 1 µM
# [7] = second compound 0.0316 µM, first compound 0.00316 µM
# [8] = second compound 0.0316 µM, first compound 0.01 µM
# [9] = second compound 0.0316 µM, first compound 0.0316 µM
# [10] = second compound 0.0316 µM, first compound 0.1 µM
# [11] = second compound 0.0316 µM, first compound 0.316 µM
# [12] = second compound 0.0316 µM, first compound 1 µM
# [13] = second compound 0.1 µM, first compound 0.00316 µM
# [14] = second compound 0.1 µM, first compound 0.01 µM
# [15] = second compound 0.1 µM, first compound 0.0316 µM
# [16] = second compound 0.1 µM, first compound 0.1 µM
# [17] = second compound 0.1 µM, first compound 0.316 µM
# [18] = second compound 0.1 µM, first compound 1 µM
# [19] = second compound 0.316 µM, first compound 0.00316 µM
# [20] = second compound 0.316 µM, first compound 0.01 µM
# [21] = second compound 0.316 µM, first compound 0.0316 µM
# [22] = second compound 0.316 µM, first compound 0.1 µM
# [23] = second compound 0.316 µM, first compound 0.316 µM
# [24] = second compound 0.316 µM, first compound 1 µM
# [25] = second compound 1 µM, first compound 0.00316 µM
# [26] = second compound 1 µM, first compound 0.01 µM
# [27] = second compound 1 µM, first compound 0.0316 µM
# [28] = second compound 1 µM, first compound 0.1 µM
# [29] = second compound 1 µM, first compound 0.316 µM
# [30] = second compound 1 µM, first compound 1 µM
# 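Wherever viability, T/C is given: spheroids exposed to compounds for 7 days.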
structure (smiles),measurement,setting,value
CCN1CCN(Cc2ccc(Nc3ncc(F)c(-c4cc(F)c5nc(C)n(C(C)C)c5c4)n3)nc2)CC1 + CNC(C)C(=O)NC1CN(S(=O)(=O)c2cccc(S(=O)(=O)N3CCC4CCC(C(=O)NC(c5ccccc5)c5ccccc5)N4C(=O)C(NC(=O)C(C)NC)C3)c2)CCC2CCC(C(=O)NC(c3ccccc3)c3ccccc3)N2C1=O,IC50,second compound 0.01 µM,> 1000 nM
same,IC50,second compound 0.0316 µM,> 1000 nM
same,IC50,second compound 0.1 µM,> 1000 nM
same,IC50,second compound 0.316 µM,> 1000 nM
same,IC50,second compound 1 µM,> 1000 nM
same,"viability, T/C",[1],94.1%
same,"viability, T/C",[2],102%
same,"viability, T/C",[3],102%
same,"viability, T/C",[4],113%
same,"viability, T/C",[5],131%
same,"viability, T/C",[6],147%
same,"viability, T/C",[7],89.7%
same,"viability, T/C",[8],97.9%
same,"viability, T/C",[9],112%
same,"viability, T/C",[10],124%
same,"viability, T/C",[11],149%
same,"viability, T/C",[12],143%
same,"viability, T/C",[13],112%
same,"viability, T/C",[14],107%
same,"viability, T/C",[15],117%
same,"viability, T/C",[16],128%
same,"viability, T/C",[17],143%
same,"viability, T/C",[18],174%
same,"viability, T/C",[19],101%
same,"viability, T/C",[20],110%
same,"viability, T/C",[21],121%
same,"viability, T/C",[22],130%
same,"viability, T/C",[23],142%
same,"viability, T/C",[24],143%
same,"viability, T/C",[25],89.7%
same,"viability, T/C",[26],110%
same,"viability, T/C",[27],117%
same,"viability, T/C",[28],139%
same,"viability, T/C",[29],131%
same,"viability, T/C",[30],146%
NC(=O)C(=Cn1cnc(-c2cc(C(F)(F)F)cc(C(F)(F)F)c2)n1)c1cncnc1 + CNC(C)C(=O)NC1CN(S(=O)(=O)c2cccc(S(=O)(=O)N3CCC4CCC(C(=O)NC(c5ccccc5)c5ccccc5)N4C(=O)C(NC(=O)C(C)NC)C3)c2)CCC2CCC(C(=O)NC(c3ccccc3)c3ccccc3)N2C1=O,IC50,second compound 0.01 µM,63 nM
same,IC50,second compound 0.0316 µM,66.3 nM
same,IC50,second compound 0.1 µM,61.9 nM
same,IC50,second compound 0.316 µM,58.6 nM
same,IC50,second compound 1 µM,61.6 nM
same,"viability, T/C","second compound 0.01 µM, first compound 0.000949 µM",118%
same,"viability, T/C","second compound 0.01 µM, first compound 0.003 µM",101%
same,"viability, T/C","second compound 0.01 µM, first compound 0.00949 µM",139%
same,"viability, T/C","second compound 0.01 µM, first compound 0.03 µM",109%
same,"viability, T/C","second compound 0.01 µM, first compound 0.0949 µM",17.5%
same,"viability, T/C","second compound 0.01 µM, first compound 0.3 µM",5.02%
same,"viability, T/C","second compound 0.0316 µM, first compound 0.000949 µM",109%
same,"viability, T/C","second compound 0.0316 µM, first compound 0.003 µM",111%
same,"viability, T/C","second compound 0.0316 µM, first compound 0.00949 µM",149%
same,"viability, T/C","second compound 0.0316 µM, first compound 0.03 µM",104%
same,"viability, T/C","second compound 0.0316 µM, first compound 0.0949 µM",17.8%
same,"viability, T/C","second compound 0.0316 µM, first compound 0.3 µM",5.09%
same,"viability, T/C","second compound 0.1 µM, first compound 0.000949 µM",97.9%
same,"viability, T/C","second compound 0.1 µM, first compound 0.003 µM",109%
same,"viability, T/C","second compound 0.1 µM, first compound 0.00949 µM",145%
same,"viability, T/C","second compound 0.1 µM, first compound 0.03 µM",111%
same,"viability, T/C","second compound 0.1 µM, first compound 0.0949 µM",14.1%
same,"viability, T/C","second compound 0.1 µM, first compound 0.3 µM",4.5%
same,"viability, T/C","second compound 0.316 µM, first compound 0.000949 µM",118%
same,"viability, T/C","second compound 0.316 µM, first compound 0.003 µM",108%
same,"viability, T/C","second compound 0.316 µM, first compound 0.00949 µM",149%
same,"viability, T/C","second compound 0.316 µM, first compound 0.03 µM",98.7%
same,"viability, T/C","second compound 0.316 µM, first compound 0.0949 µM",15.8%
same,"viability, T/C","second compound 0.316 µM, first compound 0.3 µM",4.13%
same,"viability, T/C","second compound 1 µM, first compound 0.000949 µM",110%
same,"viability, T/C","second compound 1 µM, first compound 0.003 µM",108%
same,"viability, T/C","second compound 1 µM, first compound 0.00949 µM",166%
same,"viability, T/C","second compound 1 µM, first compound 0.03 µM",108%
same,"viability, T/C","second compound 1 µM, first compound 0.0949 µM",15.6%
same,"viability, T/C","second compound 1 µM, first compound 0.3 µM",3.79%
O=C(c1ccc(F)c(F)c1Nc1ccc(I)cc1F)N1CC(O)([C@@H]2CCCCN2)C1 + CNC(C)C(=O)NC1CN(S(=O)(=O)c2cccc(S(=O)(=O)N3CCC4CCC(C(=O)NC(c5ccccc5)c5ccccc5)N4C(=O)C(NC(=O)C(C)NC)C3)c2)CCC2CCC(C(=O)NC(c3ccccc3)c3ccccc3)N2C1=O,IC50,second compound 0.01 µM,> 1000 nM
same,IC50,second compound 0.0316 µM,747 nM
same,IC50,second compound 0.1 µM,635 nM
same,IC50,second compound 0.316 µM,519 nM
same,IC50,second compound 1 µM,408 nM
same,"viability, T/C",[1],98.1%
same,"viability, T/C",[2],103%
same,"viability, T/C",[3],125%
same,"viability, T/C",[4],202%
same,"viability, T/C",[5],96.9%
same,"viability, T/C",[6],44.9%
same,"viability, T/C",[7],93.8%
same,"viability, T/C",[8],98.2%
same,"viability, T/C",[9],133%
same,"viability, T/C",[10],203%
same,"viability, T/C",[11],86.4%
same,"viability, T/C",[12],37.6%
same,"viability, T/C",[13],84.7%
same,"viability, T/C",[14],91.3%
same,"viability, T/C",[15],148%
same,"viability, T/C",[16],191%
same,"viability, T/C",[17],80%
same,"viability, T/C",[18],30.5%
same,"viability, T/C",[19],115%
same,"viability, T/C",[20],111%
same,"viability, T/C",[21],145%
same,"viability, T/C",[22],179%
same,"viability, T/C",[23],68.2%
same,"viability, T/C",[24],25.7%
same,"viability, T/C",[25],92.5%
same,"viability, T/C",[26],110%
same,"viability, T/C",[27],121%
same,"viability, T/C",[28],158%
same,"viability, T/C",[29],58.1%
same,"viability, T/C",[30],21.4%
